According to patent publication US11000033B2, “Ketone or oxime compound, and herbicide” (NISSAN CHEMICAL CORPORATION, priority 2014, dated 2021):

Experiments:
Type in all cases: in vivo
Avena fatua [1] = experiment: Test Example 5: herbicidal effect by foliage application, plastic box (symbol I); conditions: 320 g/ha, 3 weeks after application
How it was run: (§1)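 Herbicide, formulated as an emulsion and diluted in water, is sprayed onto the aerial parts of 14-day seedlings. These were grown at 25° C. to 30° C. in sterilized diluvial soil; effects are graded after 3 weeks.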

Abutilon theophrasti [2] = experiment: Test Example 5: herbicidal effect by foliage application, plastic box (symbol M); conditions: 320 g/ha, 3 weeks after application
How it was run: as §1

Digitaria ciliaris = experiment: Test Example 4: herbicidal effect by soil treatment (symbol F); conditions: application herbicide amount 320 g/ha
How it was run: (§2)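 Seeds were sown in sterilized diluvial soil, covered with about 1.5 cm of soil, and the soil surface was sprayed with a water-diluted emulsion of the compound at a predetermined rate. Plants grew in a greenhouse at 25° C. to 30° C.; effects were scored visually 3 weeks after application.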

corn = experiment: Test Example 4: effect on crop by soil treatment (symbol c); conditions: application herbicide amount 320 g/ha
How it was run: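 Plants are raised in a greenhouse (25° C. to 30° C.) from spot-sown seed, which sits under about 1.5 cm of sterilized diluvial soil in a box shared with weed species.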

Avena fatua [3] = experiment: Test Example 4: herbicidal effect by soil treatment (symbol I); conditions: application herbicide amount 320 g/ha
How it was run: as §2

[4] = system: directly sowed rice plant; experiment: Test Example 3: effect on crop by foliage application, Wagner pot (symbol b); conditions: application herbicide amount 320 g/ha
How it was run: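 Greenhouse culture at 25–30 °C of seeded rice, Cyperus difformis, Leptochloa chinensis and Echinochloa crus-galli var. crus-galli, in alluvial soil held under 0.1–0.5 cm of water in a Wagner pot.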

Abutilon theophrasti [5] = experiment: Test Example 4: herbicidal effect by soil treatment (symbol M); conditions: application herbicide amount 320 g/ha
How it was run: as §2

Leptochloa chinensis = experiment: Test Example 3: herbicidal effect by foliage application, Wagner pot (symbol D); conditions: application herbicide amount 320 g/ha
How it was run: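 Seeds sown in alluvial soil kept under 0.1–0.5 cm water, greenhouse 25–30 °C; 14 d growth. Leaves treated by small sprayer with water-diluted emulsion at a predetermined rate. Effect graded by set scale, 3 weeks.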

Stellaria media = experiment: Test Example 4: herbicidal effect by soil treatment (symbol P); conditions: application herbicide amount 320 g/ha
How it was run: as §2

wheat = experiment: Test Example 5: effect on crop by foliage application, plastic box (symbol e); conditions: 320 g/ha, 3 weeks after application
How it was run: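 A greenhouse held between 25° C. and 30° C. was used to grow plants sown spot-wise, beneath ~1.5 cm of soil, in boxes of sterilized diluvial soil.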

Lolium multiflorum Lam. = experiment: Test Example 5: herbicidal effect by foliage application, plastic box (symbol K); conditions: 320 g/ha, 3 weeks after application
How it was run: as §1

beet = experiment: Test Example 4: effect on crop by soil treatment (symbol f); conditions: application herbicide amount 320 g/ha
How it was run: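 Sterilized diluvial soil, spot sowing, ~1.5 cm soil cover; greenhouse 25–30° C.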

Scirpus juncoides = experiment: Test Example 2: herbicidal activity, application during weed generation in submerged conditions (symbol B); conditions: Table 23; application herbicide amount 320 g/ha; grade 0-5 by criteria of Test Example 1
How it was run: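 Each pot contained alluvial soil under 4 cm of water with seeds of all three weeds sown together. Following growth at 25° C. to 30° C. to the one- to two-leaf stage, the floodwater received diluted emulsion at a predetermined amount; visual assessment followed at 3 weeks.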

Compound | effect on crop b (directly sowed rice plant), grade 0-5 [4] | herbicidal effect on D (Leptochloa chinensis), grade 0-5 (Leptochloa chinensis) | I: Avena fatua, herbicidal effect grade (Avena fatua [1]) | Herbicidal effect grade, B: Scirpus juncoides (Scirpus juncoides) | M: Abutilon theophrasti, herbicidal effect grade (Abutilon theophrasti [2]) | F (Digitaria ciliaris) herbicidal effect grade (Digitaria ciliaris) | c (corn) effect on crop grade (corn) | I (Avena fatua) herbicidal effect grade (Avena fatua [3]) | M (Abutilon theophrasti) herbicidal effect grade (Abutilon theophrasti [5]) | P (Stellaria media) herbicidal effect grade (Stellaria media) | e: wheat, effect on crop grade (wheat) | K: Lolium multiflorum Lam., herbicidal effect grade (Lolium multiflorum Lam.) | f (beet) effect on crop grade (beet) | other results
CC(=O)CC1CC(O)=C(c2c(C)cc(-c3ccc(OC(F)(F)F)cc3)cc2C)C1=O (centres unmarked) [7-016] | 0 (Herbicidal ratio of 5% or lower (almost no effect)) | 5 (Herbicidal ratio of 90% or more (almost completely withered)) | – | – | – | – | – | – | – | – | – | – | – | I: Avena fatua, herbicidal effect (criteria of Test Example 1) (Avena fatua [1]): 0 (Herbicidal ratio of 5% or lower (almost no effect)); M: Abutilon theophrasti, herbicidal effect (criteria of Test Example 1) (Abutilon theophrasti [2]): 0 (Herbicidal ratio of 5% or lower (almost no effect)); Herbicidal effect grade, F: Digitaria ciliaris (Digitaria ciliaris): 3 (Herbicidal ratio of 40% or higher and lower than 70%); Effect on crop grade, c: corn (corn): 0 (Herbicidal ratio of 5% or lower (almost no effect)); Herbicidal effect grade, I: Avena fatua (Avena fatua [3]): 0 (Herbicidal ratio of 5% or lower (almost no effect)); Herbicidal effect grade, M: Abutilon theophrasti (Abutilon theophrasti [5]): 0 (Herbicidal ratio of 5% or lower (almost no effect)); Herbicidal effect grade, P: Stellaria media (Stellaria media): 0 (Herbicidal ratio of 5% or lower (almost no effect)); e: wheat, effect on crop (criteria of Test Example 1) (wheat): 0 (Herbicidal ratio of 5% or lower (almost no effect)); K: Lolium multiflorum Lam., herbicidal effect (criteria of Test Example 1) (Lolium multiflorum Lam.): 0 (Herbicidal ratio of 5% or lower (almost no effect)); Effect on crop grade, f: beet (beet): 0 (Herbicidal ratio of 5% or lower (almost no effect))
CON=C(C)CC1CC(OC(=O)COc2ccccc2[N+](=O)[O-])=C(c2c(C)cc(C)cc2C)C1=O (centres unmarked) [1-071] | 5 (Herbicidal ratio of 90% or more (almost completely withered)) | 5 (Herbicidal ratio of 90% or more (almost completely withered)) | 5 (Herbicidal ratio of 90% or more (almost completely withered)) | 3 (Herbicidal ratio of 40% or higher and lower than 70%) | 4 (Herbicidal ratio of 70% or higher and lower than 90%) | 5 (Herbicidal ratio of 90% or more (almost completely withered)) | 4 (Herbicidal ratio of 70% or higher and lower than 90%) | 4 (Herbicidal ratio of 70% or higher and lower than 90%) | 4 (Herbicidal ratio of 70% or higher and lower than 90%) | 0 (Herbicidal ratio of 5% or lower (almost no effect)) | 5 (Herbicidal ratio of 90% or more (almost completely withered)) | 3 (Herbicidal ratio of 40% or higher and lower than 70%) | – | –
COCCON=C(C)CC1CC(O)=C(c2c(C)cc(C)cc2C)C1=O (centres unmarked) [1-041] | 5 (Herbicidal ratio of 90% or more (almost completely withered)) | 5 (Herbicidal ratio of 90% or more (almost completely withered)) | 5 (Herbicidal ratio of 90% or more (almost completely withered)) | 0 (Herbicidal ratio of 5% or lower (almost no effect)) | 4 (Herbicidal ratio of 70% or higher and lower than 90%) | 5 (Herbicidal ratio of 90% or more (almost completely withered)) | 4 (Herbicidal ratio of 70% or higher and lower than 90%) | 5 (Herbicidal ratio of 90% or more (almost completely withered)) | 3 (Herbicidal ratio of 40% or higher and lower than 70%) | 0 (Herbicidal ratio of 5% or lower (almost no effect)) | 5 (Herbicidal ratio of 90% or more (almost completely withered)) | 5 (Herbicidal ratio of 90% or more (almost completely withered)) | – | –
CON=C(C)CC1CC(OC(=O)COc2ccc(Cl)cc2Cl)=C(c2c(C)cc(C)cc2C)C1=O (centres unmarked) [1-075] | 5 (Herbicidal ratio of 90% or more (almost completely withered)) | 5 (Herbicidal ratio of 90% or more (almost completely withered)) | – | 4 (Herbicidal ratio of 70% or higher and lower than 90%) | – | 5 (Herbicidal ratio of 90% or more (almost completely withered)) | 5 (Herbicidal ratio of 90% or more (almost completely withered)) | – | 5 (Herbicidal ratio of 90% or more (almost completely withered)) | 0 (Herbicidal ratio of 5% or lower (almost no effect)) | – | – | – | I: Avena fatua, herbicidal effect (criteria 0-5) (Avena fatua [1]): 5 (Herbicidal ratio of 90% or more (almost completely withered)); M: Abutilon theophrasti, herbicidal effect (criteria 0-5) (Abutilon theophrasti [2]): 4 (Herbicidal ratio of 70% or higher and lower than 90%); e: wheat, effect on crop (criteria 0-5) (wheat): 5 (Herbicidal ratio of 90% or more (almost completely withered)); K: Lolium multiflorum Lam., herbicidal effect (criteria 0-5) (Lolium multiflorum Lam.): 5 (Herbicidal ratio of 90% or more (almost completely withered))
CON=C(C)CC1CC(OC(=O)COc2ccccc2)=C(c2c(C)cc(C)cc2C)C1=O (centres unmarked) [1-043] | 5 (Herbicidal ratio of 90% or more (almost completely withered)) | 5 (Herbicidal ratio of 90% or more (almost completely withered)) | 5 (Herbicidal ratio of 90% or more (almost completely withered)) | 5 (Herbicidal ratio of 90% or more (almost completely withered)) | 4 (Herbicidal ratio of 70% or higher and lower than 90%) | 5 (Herbicidal ratio of 90% or more (almost completely withered)) | 4 (Herbicidal ratio of 70% or higher and lower than 90%) | 4 (Herbicidal ratio of 70% or higher and lower than 90%) | 4 (Herbicidal ratio of 70% or higher and lower than 90%) | – | 5 (Herbicidal ratio of 90% or more (almost completely withered)) | 5 (Herbicidal ratio of 90% or more (almost completely withered)) | 4 (Herbicidal ratio of 70% or higher and lower than 90%) | –
CC(CC1CC(O)=C(c2c(C)cc(C)cc2C)C1=O)=NOCC(C)O (centres unmarked) [1-027] | 5 (Herbicidal ratio of 90% or more (almost completely withered)) | 5 (Herbicidal ratio of 90% or more (almost completely withered)) | 5 (Herbicidal ratio of 90% or more (almost completely withered)) | 3 (Herbicidal ratio of 40% or higher and lower than 70%) | 2 (Herbicidal ratio of 20% or higher and lower than 40%) | 5 (Herbicidal ratio of 90% or more (almost completely withered)) | 4 (Herbicidal ratio of 70% or higher and lower than 90%) | 4 (Herbicidal ratio of 70% or higher and lower than 90%) | 0 (Herbicidal ratio of 5% or lower (almost no effect)) | – | 4 (Herbicidal ratio of 70% or higher and lower than 90%) | 5 (Herbicidal ratio of 90% or more (almost completely withered)) | 0 (Herbicidal ratio of 5% or lower (almost no effect)) | –
